Measured values from patent publication US11766429B1, “Nicotinic receptor antagonists and pioglitazone as therapeutic agents for Covid-19” (priority 2020, dated 2023).

Assays:
[1] = higher doses (30-90 mg/day); cited from earlier work
[2] = test system: mouse hepatitis virus strain 4 (MHV4); assay: MHV4 replication in infected IMG cells (GFP expression, N gene qPCR); assay type: cell-based; details: 2 MOI MHV4, mecamylamine 1, 10 or 40 μM, 48 hours
[3] = in vivo; cited from earlier work
[4] = test system: inflammatory cytokine gene expression (IL1-β, IL-6, TNF-α); assay: Inflammatory cytokine gene expression in MHV4 infected IMG cells; assay type: cell-based; details: 2 MOI MHV4, mecamylamine 1, 10 or 40 μM, 48 hours
[5] = test system: human α3β4, α4β2, α3β2 and α7 receptors; details: cited from earlier work; for selectivity between nAChR types: neuronal vs muscle-type nAChRs; for mode of inhibition: neuronal nAChRs
[6] = test system: inflammatory cytokines IL-6, IL-1β, and TNFα; assay: SARS-CoV-2 induced cytokine gene expression in Calu3 cells; assay type: cell-based; details: 0.1 MOI SARS CoV2, single agent: PG 20 μM, Mec 5 μM or Mec iso 5 μM, 48 hrs

SMILES	side effects [1]	GFP expressing cells [2]	MHV-4 N-gene expression [2]	blood brain barrier penetration [3]	cytokine gene transcription (qPCR) [4]	selectivity between nAChR types [5]	inflammatory cytokines IL-6, IL-1β, and TNFα [6]	mode of inhibition [5]
CNC1(C)C2CCC(C2)C1(C)C (racemic) [mecamylamine]	causes unfavorable side effects	dose-dependent decrease	dose-dependent decrease	ability to cross the blood brain barrier	dose-dependent decrease	selective for neuronal nAChRs over muscle-type nAChRs	significant decrease	–
CNC1(C)C2CCC(C2)C1(C)C (stereo not drawn) [R-(−)-mecamylamine]	–	–	–	–	–	selective for neuronal nAChRs over muscle-type nAChRs	–	noncompetitive inhibitors
CN[C@@]1(C)[C@@H]2CC[C@@H](C2)C1(C)C [S-(+)-mecamylamine]	–	–	–	–	–	selective for neuronal nAChRs over muscle-type nAChRs	–	noncompetitive inhibitors
